Assay results reported in patent publication US20240197742A1, “Therapeutic Combinations of a CD19 Inhibitor and a BTK Inhibitor” (Acerta Pharma B.V., priority 2015, published 2024).
“Also recorded” adds a separate entry of the source.

What was measured:
[1] = within the tested dose range (through 840 mg); cited from earlier work
regulatory T cell (Treg) = experiment: Treg development from enriched CD4+ T cells; type: cell-based; conditions: anti-TCRβ plus anti-CD28, skewing cytokines, 4 days
Procedure: (§1) Enriched CD4^+ T cells are plated on 24-well culture dishes that have been precoated 2 hr with 250 μL anti-TCRβ (0.5 μg/mL) plus anti-CD28 (5 μg/mL) at 37° C. in PBS. The cells are then supplemented with media containing BTK inhibitors along with the skewing cytokines as indicated in the following. The Th17 and Treg cultures are grown for 4 days before analysis. The cells are maintained for an additional 3 days with skewing cytokines (Th17; 20 ng/mL IL-6, 0.5 ng/mL TGF-β, 5 μg/mL IL-4, 5 μg/mL IFN-γ and Treg; 0.5 ng/mL TGF-β, 5 μg/mL IL-4, 5 μg/mL IFN-γ) and are supplemented with IL2 as a growth factor.

CD8+ T cells [2] = experiment: CD8+ T cell viability; type: cell-based; conditions: anti-TCR and anti-CD28 coated wells, neutral conditions, 4 days
Procedure: Total T cells were plated on anti-TCR and anti-CD28 coated wells in the presence of both BTK inhibitors. Neutral culture conditions were used that will not polarize T cells to a helper lineage. […] Statistical significance was calculated using the Mann Whitney T-test.

CD8+ T cells [3] = experiment: Cytotoxic T cell (CTL) assay; type: cell-based; conditions: 500 nM, relative to vehicle
Procedure: Without being bound by any theory, CD8^+ T cells have two primary effector functions: (1) produce large amounts of IFN-γ (which activates macrophages), and (2) cytolytic activity. […] The targets were B lymphoblasts from lipopolysaccharide (LPS) treated cultures. The assay was performed by incubating different ratios of effectors:targets for 4 hours.

B cell receptor = experiment: Whole blood potency: CD69 on CD19+ B cells after anti-human IgD; type: cell-based; conditions: blood from four healthy donors, 2 hours with compound, anti-human IgD 10 μg/mL 18 hours, read-out: EC50, CD69 on gated CD19+ B cells in whole blood
Raji = experiment: ADCC chromium release assay, Raji targets; type: cell-based, human; conditions: 1 μM; all rituximab concentrations; healthy donor NK cells
Procedure: All in vitro experiments were performed in triplicate.
ADCC assays were performed as follows. Briefly, target cells (Raji or primary CLL) were labeled by incubation at 37° C. with 100 μCi ^51Cr for 4 hours prior to co-culture with NK cells. Cells were washed, enumerated, and then added in triplicate to prepared 96-well plates containing treated NK cells at an effector:target (E:T) ratio of 25:1. […] Cultures were incubated at 37° C. for 4 hours, and then centrifuged. Supernatants were harvested and ^51Cr release was measured by liquid scintillation counting. All experiments were performed in triplicate.

Th17 cells = experiment: Th17 development from enriched CD4+ T cells; type: cell-based; conditions: anti-TCRβ plus anti-CD28, skewing cytokines, 4 days
Procedure: as §1

GPVI = GPVI platelet aggregation (convulxin); type: cell-based, human
Procedure: GPVI platelet aggregation was measured for Formula (2) and Formula (10) (ibrutinib). Blood was obtained from untreated humans, and platelets were purified from […] by centrifugation. Cells were resuspended to a final concentration of 350,000/μL in buffer containing 145 mmol/L NaCl, 10 mmol/L HEPES, 0.5 mmol/L Na2HPO4, 5 mmol/L KCl, 2 mmol/L MgCl2, 1 mmol/L CaCl2, and 0.1% glucose, at pH 7.4. Stock solutions of Convulxin (CVX) GPVI were prepared on the day of experimentation and added to platelet suspensions 5 minutes (37° C., 1200 rpm) before the induction of aggregation. Aggregation was assessed with a Chronolog Lumi-Aggregometer (model 540 VS; Chronolog, Havertown, PA) and permitted to proceed for 6 minutes after the addition of agonist. The results are reported as maximum percent change in light transmittance from baseline with platelet buffer used as a reference.
In FIG. 72, the results of CVX-induced (250 ng/mL) human platelet aggregation results before and 15 minutes after administration of the BTK inhibitors to 6 healthy individuals are shown.

| SMILES | maximum tolerated dose (MTD) [1] | effect on Treg development (regulatory T cell (Treg)) | effect on Treg development (regulatory T cell (Treg); listed as ibrutinib) | effect on CD8+ T cell viability (CD8+ T cells [2]) | CD8+ T cell function as measured by % cytotoxicity (CD8+ T cells [3]; 4 days CTL generation) | CD8+ T cell function as measured by IFN-γ level (CD8+ T cells [3]) | EC50 (B cell receptor) | cell lysis, Raji (Raji) | effect on Th17 cells / Th17 development (Th17 cells) | effect on Th17 cells / Th17 development (Th17 cells; listed as ibrutinib) | effect on GPVI platelet aggregation (GPVI; CVX-induced human platelet aggregation) | IC50 (GPVI; purified human platelets, convulxin (CVX)) |
| --- | --- | --- | --- | --- | --- | --- | --- | --- | --- | --- | --- | --- |
| C=CC(=O)N1CCC[C@@H](n2nc(-c3ccc(Oc4ccccc4)cc3)c3c(N)ncnc32)C1 [Formula (10), 1-[(3R)-3-[4-amino-3-(4-phenoxyphenyl)-1H-pyrazolo[3,4-d]pyrimidin-1-yl]piperidin-1-yl]prop-2-en-1-one] | No maximum tolerated dose (MTD) was apparent | strongly increases | increase | strong, negative effect; also recorded: strongly affects | affects | significant loss of function; also recorded: affects | 6.1 nM | < 20% | strongly inhibits | profound inhibition | significantly inhibits | 130 nM |
| C=CC(=O)Nc1cccc(Nc2nc(Nc3ccc(OCCOC)cc3)ncc2F)c1 [Formula (17), N-(3-((5-fluoro-2-((4-(2-methoxyethoxy)phenyl)amino)pyrimidin-4-yl)amino)phenyl)acrylamide] |  |  |  |  |  |  | 121 nM |  |  |  |  |  |
